Results as given in article PMC12133102, “Deciphering the Physical Binding Mechanism of Enzyme–Photosensitizer Facilitates Catalysis-Augmented Photodynamic Therapy” (Research, 2025).

Target: T1, HSA (human serum albumin) (Homo sapiens, UniProt P02768)
T1 construct: gene ALB; commercial HSA (Shanghai Yuanye); amine-coupled to CM5 chip
Test: SPR (Biacore T200, immobilized protein on CM5)
Type: binding

T1 sequence (P02768 25-609): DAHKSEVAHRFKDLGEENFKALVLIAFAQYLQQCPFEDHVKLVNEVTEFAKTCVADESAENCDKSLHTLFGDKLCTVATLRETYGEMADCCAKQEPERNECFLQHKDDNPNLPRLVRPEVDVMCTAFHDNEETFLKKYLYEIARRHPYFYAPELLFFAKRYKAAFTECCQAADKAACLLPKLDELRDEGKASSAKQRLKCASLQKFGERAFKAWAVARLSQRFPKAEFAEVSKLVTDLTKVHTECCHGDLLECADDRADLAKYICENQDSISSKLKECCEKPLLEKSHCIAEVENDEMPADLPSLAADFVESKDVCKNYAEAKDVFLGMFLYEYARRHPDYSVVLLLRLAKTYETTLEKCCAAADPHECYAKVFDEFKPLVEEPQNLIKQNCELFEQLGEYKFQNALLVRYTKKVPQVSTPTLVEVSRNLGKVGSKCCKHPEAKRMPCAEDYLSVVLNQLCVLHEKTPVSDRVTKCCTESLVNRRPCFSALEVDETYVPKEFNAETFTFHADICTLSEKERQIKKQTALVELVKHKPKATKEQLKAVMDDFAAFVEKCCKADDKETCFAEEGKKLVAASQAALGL

- Kd: 2.12 µM
Structure (SMILES): C=Cc1c(C)c2cc3nc(c(CC(=O)O)c4[nH]c(cc5nc(cc1[nH]2)C(C)=C5CC)c(C)c4C(=O)O)[C@@H](CCC(=O)O)[C@@H]3C [Ce6]
